Test results reported in ChEMBL document CHEMBL5620392, “Spiroindole-containing compounds bearing phosphonate group of potential Mpro-SARS-CoV-2 inhibitory properties” (Eur J Med Chem, 2023).

Legend:
[1] = Cytotoxicity against African green monkey Vero E6 cells assessed as reduction in cell viability; type: toxicity, cell-based, Vero C1008; settings: chlorocebus sabaeus
[2] = Selectivity index, ratio of CC50 for African green monkey Vero E6 cells to IC50 for SARS-CoV-2 infected in African green monkey Vero E6 cells; type: toxicity; settings: read-out: Selectivity Index
[3] = test system: SARS-CoV-2; test: Antiviral activity against SARS-CoV-2 infected in African green monkey Vero E6 cells assessed as inhibition of viral infection; type: functional, organism-based; settings: Severe acute respiratory syndrome coronavirus 2, Vero C1008
[4] = test system: SARS-CoV-2; test: Antiviral activity against SARS-CoV-2 infected in African green monkey Vero E6 cells; type: functional, organism-based; settings: Severe acute respiratory syndrome coronavirus 2, Vero C1008

Structure (SMILES)	CC50 [1]	selectivity ratio [2]	IC50 [3]	EC50 [4]
CCN(CCO)CCCC(C)Nc1ccnc2cc(Cl)ccc12 (stereo not drawn) [HYDROXYCHLOROQUINE]	356 µM	9.7	36.9 µM	
NC(=O)c1nc(F)cnc1O	5260 µM	3.8	1380 µM	
CCN(CC)CCCC(C)Nc1ccnc2cc(Cl)ccc12 (stereo not drawn) [CHLOROQUINE]			25 µM	
COc1cccc2[nH]c(C(=O)N[C@@H](CC(C)C)C(=O)N[C@@H](C[C@@H]3CCNC3=O)C(=O)CO)cc12 [PF-00835231]				≤ 0.23 µM
